Measurements published in ChEMBL document CHEMBL1909046, “DrugMatrix in vitro pharmacology data”.

Key:
[1] = biological target: 5-hydroxytryptamine receptor 6 (Homo sapiens, UniProt P50406); assay type: cell membranes, HeLa, Membrane; conditions: hela; note: in other assays of this panel Not Active means under 50% inhibition at 10 µM
[2] = biological target: T1, Vasoactive intestinal polypeptide receptor 1 (Homo sapiens, UniProt P32241); assay type: cell membranes, Membrane; conditions: ht-29; note: in other assays of this panel Not Active means under 50% inhibition at 10 µM
T1 sequence (P32241 whole entry): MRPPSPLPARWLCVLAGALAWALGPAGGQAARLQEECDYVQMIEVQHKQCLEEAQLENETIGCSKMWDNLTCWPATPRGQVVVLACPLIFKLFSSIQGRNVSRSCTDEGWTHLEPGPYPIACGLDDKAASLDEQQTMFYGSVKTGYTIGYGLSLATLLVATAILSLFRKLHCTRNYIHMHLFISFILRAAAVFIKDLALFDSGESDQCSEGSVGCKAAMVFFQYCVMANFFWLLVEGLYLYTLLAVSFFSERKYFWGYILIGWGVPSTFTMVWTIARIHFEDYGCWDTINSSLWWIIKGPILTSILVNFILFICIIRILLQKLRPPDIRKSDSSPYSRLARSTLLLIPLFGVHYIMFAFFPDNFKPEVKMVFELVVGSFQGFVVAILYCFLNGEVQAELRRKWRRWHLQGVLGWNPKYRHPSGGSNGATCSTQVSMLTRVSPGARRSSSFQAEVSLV

[3] = biological target: D(1A) dopamine receptor (Homo sapiens, UniProt P21728); assay: DRUGMATRIX: Dopamine D1 radioligand binding (ligand: [3H] SCH-23390); assay type: cell membranes, CHO, Membrane; conditions: cho; Not Active = under 50% inhibition at 10 µM
Chain of D(1A) dopamine receptor (P21728 whole entry): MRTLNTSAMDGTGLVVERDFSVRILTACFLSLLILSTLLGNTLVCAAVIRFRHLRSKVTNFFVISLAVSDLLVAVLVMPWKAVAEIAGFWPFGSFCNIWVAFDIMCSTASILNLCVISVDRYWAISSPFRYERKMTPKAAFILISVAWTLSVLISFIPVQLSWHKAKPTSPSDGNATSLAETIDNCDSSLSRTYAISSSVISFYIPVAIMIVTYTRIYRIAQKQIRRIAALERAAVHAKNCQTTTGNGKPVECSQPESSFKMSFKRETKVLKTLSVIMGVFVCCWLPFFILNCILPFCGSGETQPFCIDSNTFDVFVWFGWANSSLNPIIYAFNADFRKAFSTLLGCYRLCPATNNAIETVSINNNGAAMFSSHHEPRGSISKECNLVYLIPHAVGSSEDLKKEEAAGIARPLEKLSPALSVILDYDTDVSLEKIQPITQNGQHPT

[4] = DRUGMATRIX: Imidazoline I2, Central radioligand binding (ligand: [3H] Idazoxan); assay type: cell membranes, Rattus norvegicus, Wistar, Cerebral cortex, Membrane; conditions: Not Active = under 50% inhibition at 10 µM
[5] = biological target: T2, Neuropeptide Y receptor type 2 (Homo sapiens, UniProt P49146); assay type: cell membranes, Membrane; conditions: kan-ts; note: in other assays of this panel Not Active means under 50% inhibition at 10 µM
T2 sequence (P49146 whole entry): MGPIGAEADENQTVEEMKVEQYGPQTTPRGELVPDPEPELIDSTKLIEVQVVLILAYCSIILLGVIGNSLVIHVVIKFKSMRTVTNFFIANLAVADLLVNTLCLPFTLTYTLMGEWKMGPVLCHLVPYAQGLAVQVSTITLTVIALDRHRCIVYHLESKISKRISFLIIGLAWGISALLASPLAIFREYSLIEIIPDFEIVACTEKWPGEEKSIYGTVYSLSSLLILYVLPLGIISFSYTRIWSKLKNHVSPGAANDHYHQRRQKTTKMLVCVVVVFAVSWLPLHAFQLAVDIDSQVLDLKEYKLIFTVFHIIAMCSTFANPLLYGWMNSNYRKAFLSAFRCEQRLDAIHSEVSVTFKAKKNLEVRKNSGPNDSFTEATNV

[6] = biological target: T3, Adenosine receptor A1 (Homo sapiens, UniProt P30542); assay type: cell membranes, CHO, Membrane; conditions: cho;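 note: radioligand binding assay at the adenosine A1 receptor, with DPCPX serving as the labelled ligand; in other assays of this panel Not Active means under 50% inhibition at 10 µM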
T3 sequence (P30542 whole entry): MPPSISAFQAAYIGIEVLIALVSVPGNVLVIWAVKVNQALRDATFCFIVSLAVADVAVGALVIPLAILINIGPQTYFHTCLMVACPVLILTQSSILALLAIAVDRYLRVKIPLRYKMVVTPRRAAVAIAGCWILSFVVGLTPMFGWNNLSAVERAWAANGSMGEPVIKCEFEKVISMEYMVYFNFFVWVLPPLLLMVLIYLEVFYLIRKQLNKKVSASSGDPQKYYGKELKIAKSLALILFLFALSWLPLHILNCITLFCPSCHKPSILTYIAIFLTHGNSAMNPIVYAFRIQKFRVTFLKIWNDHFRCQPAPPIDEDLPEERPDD

Chain of 5-hydroxytryptamine receptor 6 (P50406 whole entry): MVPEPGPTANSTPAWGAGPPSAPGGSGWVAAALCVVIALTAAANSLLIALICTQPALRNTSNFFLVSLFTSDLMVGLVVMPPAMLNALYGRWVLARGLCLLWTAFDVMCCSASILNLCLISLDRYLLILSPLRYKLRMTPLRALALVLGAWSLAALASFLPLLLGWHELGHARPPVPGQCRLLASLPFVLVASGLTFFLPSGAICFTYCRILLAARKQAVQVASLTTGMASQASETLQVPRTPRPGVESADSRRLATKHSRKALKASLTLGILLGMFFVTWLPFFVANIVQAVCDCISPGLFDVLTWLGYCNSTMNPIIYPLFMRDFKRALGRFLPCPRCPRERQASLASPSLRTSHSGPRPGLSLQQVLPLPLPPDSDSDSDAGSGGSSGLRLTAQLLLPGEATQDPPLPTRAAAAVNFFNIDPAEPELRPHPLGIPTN

NC(=O)N1c2ccccc2C=Cc2ccccc21 [CARBAMAZEPINE]
Not Active: IC50 [1] | IC50 [2] | IC50 [3] | IC50 [4] | Ki [4] | IC50 [5] | IC50 [6]

CCOC(=O)n1ccn(C)c1=S [CARBIMAZOLE]
Not Active: IC50 [1] | IC50 [2] | IC50 [3] | IC50 [4] | Ki [4] | IC50 [5] | IC50 [6]

Oc1ccccc1O [CATECHOL]
Not Active: IC50 [1] | IC50 [2] | IC50 [3] | IC50 [4] | Ki [4] | IC50 [5] | IC50 [6]

CO[C@@]1(NC(=O)CSCC#N)C(=O)N2C(C(=O)O)=C(CSc3nnnn3C)CS[C@@H]21 [CEFMETAZOLE]
Not Active: IC50 [1] | IC50 [2] | IC50 [3] | IC50 [4] | Ki [4] | IC50 [5] | IC50 [6]

CN(C(=O)CCCOc1ccc2[nH]c(=O)ccc2c1)C1CCCCC1 [CILOSTAMIDE]
Not Active: IC50 [1] | IC50 [2] | IC50 [3] | IC50 [4] | Ki [4] | IC50 [5] | IC50 [6]

CC(C)(Oc1ccc(C2CC2(Cl)Cl)cc1)C(=O)O (configuration not stated) [CIPROFIBRATE]
Not Active: IC50 [1] | IC50 [2] | IC50 [3] | IC50 [4] | Ki [4] | IC50 [5] | IC50 [6]

Nc1nc(Cl)nc2c1ncn2[C@H]1C[C@H](O)[C@@H](CO)O1 [CLADRIBINE]
Not Active: IC50 [1] | IC50 [2] | IC50 [3] | IC50 [4] | Ki [4] | IC50 [5] | IC50 [6]

CC[C@H]1OC(=O)[C@H](C)[C@@H](O[C@H]2C[C@@](C)(OC)[C@@H](O)[C@H](C)O2)[C@H](C)[C@@H](O[C@@H]2O[C@H](C)C[C@H](N(C)C)[C@H]2O)[C@](C)(OC)C[C@@H](C)C(=O)[C@H](C)[C@@H](O)[C@]1(C)O [CLARITHROMYCIN]
Not Active: IC50 [1] | IC50 [2] | IC50 [3] | IC50 [4] | Ki [4] | IC50 [5] | IC50 [6]

CCC[C@@H]1C[C@@H](C(=O)N[C@@H]([C@H]2O[C@H](SC)[C@H](O)[C@@H](O)[C@H]2O)[C@H](C)Cl)N(C)C1 [CLINDAMYCIN]
Not Active: IC50 [1] | IC50 [2] | IC50 [3] | IC50 [4] | Ki [4] | IC50 [5] | IC50 [6]

O=C(O)c1cc(=O)c2c(OCC(O)COc3cccc4oc(C(=O)O)cc(=O)c34)cccc2o1 [CROMOLYN]
Not Active: IC50 [1] | IC50 [2] | IC50 [3] | IC50 [4] | Ki [4] | IC50 [5] | IC50 [6]

O=P1(N(CCCl)CCCl)NCCCO1 (configuration not stated) [CYCLOPHOSPHAMIDE ANHYDROUS]
Not Active: IC50 [1] | IC50 [2] | IC50 [3] | IC50 [4] | Ki [4] | IC50 [5] | IC50 [6]
